# Source: paper PMC7156458, “Synthetic biology based construction of biological activity-related library of fungal decalin-containing diterpenoid pyrones” (Nature Communications, 2020)
# Target: Aβ42 (Homo sapiens, UniProt P05067)
# Test: Th-T (thioflavin-T) assay of Aβ42 aggregation
# Format: biochemical
# Conditions: for Th-T fluorescence, mean of three wells: Aβ42 aggregation time course
# Chain of Aβ42 (P05067 672-713): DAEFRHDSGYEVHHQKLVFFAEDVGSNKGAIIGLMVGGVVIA
smiles,measurement,setting,value
C=C1CCC2C(C)(CCC=C(C)C)C(O)CCC2(C)C1Cc1c(OC)oc(CO)c(C)c1=O (stereo not drawn) [Compound 12],delay of the nucleation phase,,no delay
same,elongation of Aβ42,,partly suppressed the elongation of Aβ42
same,first Th-T assay result,"Aβ42 (10 μM) ± DPPs (20 μM), room temperature",suppressed Aβ42
same,"Th-T fluorescence, mean of three wells",reading M117,2.054
same,"Th-T fluorescence, mean of three wells",reading M118,2.063
same,"Th-T fluorescence, mean of three wells",reading M119,2.053
same,"Th-T fluorescence, mean of three wells",reading M120,2.05
same,"Th-T fluorescence, mean of three wells",reading M121,2.047
same,"Th-T fluorescence, mean of three wells",reading M122,2.039
same,"Th-T fluorescence, mean of three wells",reading M123,2.052
same,"Th-T fluorescence, mean of three wells",reading M124,2.0354
same,"Th-T fluorescence, mean of three wells",reading M125,2.03
same,"Th-T fluorescence, mean of three wells",reading M126,2.03
same,"Th-T fluorescence, mean of three wells",reading M127,2.041
same,"Th-T fluorescence, mean of three wells",reading M128,2.036
same,"Th-T fluorescence, mean of three wells",reading M129,2.023
same,"Th-T fluorescence, mean of three wells",reading M130,2.033
same,"Th-T fluorescence, mean of three wells (Fig. 7a)","column suffix _10, measurement M19",2.572
same,"Th-T fluorescence, mean of three wells (Fig. 7a)","column suffix _10, measurement M20",2.604
same,"Th-T fluorescence, mean of three wells (Fig. 7a)","column suffix _10, measurement M21",2.632
same,"Th-T fluorescence, mean of three wells (Fig. 7a)","column suffix _10, measurement M22",2.671
same,"Th-T fluorescence, mean of three wells (Fig. 7a)","column suffix _10, measurement M23",2.692
same,"Th-T fluorescence, mean of three wells (Fig. 7a)","column suffix _10, measurement M24",2.757
same,"Th-T fluorescence, mean of three wells (Fig. 7a)","column suffix _10, measurement M25",2.768
same,"Th-T fluorescence, mean of three wells (Fig. 7a)","column suffix _10, measurement M26",2.841
same,"Th-T fluorescence, mean of three wells (Fig. 7a)","column suffix _10, measurement M27",2.803
same,"Th-T fluorescence, mean of three wells (Fig. 7a)","column suffix _10, measurement M28",2.855
same,"Th-T fluorescence, mean of three wells (Fig. 7a)","column suffix _10, measurement M29",2.853
same,"Th-T assay signal, mean of three wells (Fig. 7a)","column suffix _10, reading M1",0.2279
same,"Th-T assay signal, mean of three wells (Fig. 7a)","column suffix _10, reading M2",0.2383
same,"Th-T assay signal, mean of three wells (Fig. 7a)","column suffix _10, reading M3",0.2633
same,"Th-T assay signal, mean of three wells (Fig. 7a)","column suffix _10, reading M4",0.2928
same,"Th-T assay signal, mean of three wells (Fig. 7a)","column suffix _10, reading M5",0.3222
same,"Th-T assay signal, mean of three wells (Fig. 7a)","column suffix _10, reading M6",0.3621
same,"Th-T assay signal, mean of three wells (Fig. 7a)","column suffix _10, reading M7",0.3868
same,"Th-T assay signal, mean of three wells (Fig. 7a)","column suffix _10, reading M8",0.4315
same,"Th-T assay signal, mean of three wells (Fig. 7a)","column suffix _10, reading M9",0.4649
same,"Th-T assay signal, mean of three wells (Fig. 7a)","column suffix _10, reading M10",0.5209
same,"Th-T assay signal, mean of three wells (Fig. 7a)","column suffix _10, reading M11",0.5656
same,"Th-T assay signal, mean of three wells (Fig. 7a)","column suffix _10, reading M12",0.6921
same,"Th-T assay signal, mean of three wells (Fig. 7a)","column suffix _10, reading M13",1.089
same,"Th-T assay signal, mean of three wells (Fig. 7a)","column suffix _10, reading M14",1.582
same,"Th-T assay signal, mean of three wells (Fig. 7a)","column suffix _10, reading M15",1.98
same,"Th-T assay signal, mean of three wells (Fig. 7a)","column suffix _10, reading M16",2.245
same,"Th-T assay signal, mean of three wells (Fig. 7a)","column suffix _10, reading M17",2.406
same,"Th-T assay signal, mean of three wells (Fig. 7a)","column suffix _10, reading M18",2.511
same,"Fig. 7a Th-T reading, mean of three wells","column suffix _10, reading M85",3.136
same,"Fig. 7a Th-T reading, mean of three wells","column suffix _10, reading M86",3.133
same,"Fig. 7a Th-T reading, mean of three wells","column suffix _10, reading M87",3.112
same,"Fig. 7a Th-T reading, mean of three wells","column suffix _10, reading M88",3.093
same,"Fig. 7a Th-T reading, mean of three wells","column suffix _10, reading M89",3.066
same,"Fig. 7a Th-T reading, mean of three wells","column suffix _10, reading M90",3.046
same,"Fig. 7a Th-T reading, mean of three wells","column suffix _10, reading M91",3.03
same,"Fig. 7a Th-T reading, mean of three wells","column suffix _10, reading M92",3.012
same,"Fig. 7a Th-T reading, mean of three wells","column suffix _10, reading M93",2.997
same,"Fig. 7a Th-T reading, mean of three wells","column suffix _10, reading M94",2.971
same,"Fig. 7a Th-T reading, mean of three wells","column suffix _10, reading M95",2.948
same,"Fig. 7a Th-T reading, mean of three wells","column suffix _10, reading M96",2.943
same,"Fig. 7a Th-T reading, mean of three wells","column suffix _10, reading M97",2.923
same,"Fig. 7a Th-T reading, mean of three wells","column suffix _10, reading M98",2.913
same,"Fig. 7a Th-T reading, mean of three wells","column suffix _10, reading M99",2.8964
same,"Fig. 7a Th-T reading, mean of three wells","column suffix _10, reading M100",2.873
same,"Fig. 7a Th-T reading, mean of three wells","column suffix _10, reading M101",2.854
same,"Fig. 7a Th-T reading, mean of three wells","column suffix _10, reading M102",2.835
same,"Fig. 7a Th-T reading, mean of three wells","column suffix _10, reading M103",2.818
same,"Fig. 7a Th-T reading, mean of three wells","column suffix _10, reading M104",2.806
same,"Fig. 7a Th-T reading, mean of three wells","column suffix _10, reading M105",2.7797
same,"Fig. 7a Th-T reading, mean of three wells","column suffix _10, reading M106",2.769
same,"Th-T fluorescence, mean of three wells (Fig. 7a)","column suffix _20, measurement M19",2.538
same,"Th-T fluorescence, mean of three wells (Fig. 7a)","column suffix _20, measurement M20",2.543
same,"Th-T fluorescence, mean of three wells (Fig. 7a)","column suffix _20, measurement M21",2.5199
same,"Th-T fluorescence, mean of three wells (Fig. 7a)","column suffix _20, measurement M22",2.494
same,"Th-T fluorescence, mean of three wells (Fig. 7a)","column suffix _20, measurement M23",2.481
same,"Th-T fluorescence, mean of three wells (Fig. 7a)","column suffix _20, measurement M24",2.476
same,"Th-T fluorescence, mean of three wells (Fig. 7a)","column suffix _20, measurement M25",2.43
same,"Th-T fluorescence, mean of three wells (Fig. 7a)","column suffix _20, measurement M26",2.427
same,"Th-T fluorescence, mean of three wells (Fig. 7a)","column suffix _20, measurement M27",2.441
same,"Th-T fluorescence, mean of three wells (Fig. 7a)","column suffix _20, measurement M28",2.387
same,"Th-T fluorescence, mean of three wells (Fig. 7a)","column suffix _20, measurement M29",2.411
same,"Th-T fluorescence, mean of three wells (Fig. 7a)","column suffix _20, measurement M30",2.389
same,"Th-T assay signal, mean of three wells (Fig. 7a)","column suffix _20, reading M1",0.2949
same,"Th-T assay signal, mean of three wells (Fig. 7a)","column suffix _20, reading M2",0.3314
same,"Th-T assay signal, mean of three wells (Fig. 7a)","column suffix _20, reading M3",0.3699
same,"Th-T assay signal, mean of three wells (Fig. 7a)","column suffix _20, reading M4",0.6391
same,"Th-T assay signal, mean of three wells (Fig. 7a)","column suffix _20, reading M5",1.147
same,"Th-T assay signal, mean of three wells (Fig. 7a)","column suffix _20, reading M6",1.822
same,"Th-T assay signal, mean of three wells (Fig. 7a)","column suffix _20, reading M7",2.22
same,"Th-T assay signal, mean of three wells (Fig. 7a)","column suffix _20, reading M8",2.421
same,"Th-T assay signal, mean of three wells (Fig. 7a)","column suffix _20, reading M9",2.522
same,"Th-T assay signal, mean of three wells (Fig. 7a)","column suffix _20, reading M10",2.562
same,"Th-T assay signal, mean of three wells (Fig. 7a)","column suffix _20, reading M11",2.583
same,"Th-T assay signal, mean of three wells (Fig. 7a)","column suffix _20, reading M12",2.606
same,"Th-T assay signal, mean of three wells (Fig. 7a)","column suffix _20, reading M13",2.583
same,"Th-T assay signal, mean of three wells (Fig. 7a)","column suffix _20, reading M14",2.612
same,"Th-T assay signal, mean of three wells (Fig. 7a)","column suffix _20, reading M15",2.602
same,"Th-T assay signal, mean of three wells (Fig. 7a)","column suffix _20, reading M16",2.5699
same,"Th-T assay signal, mean of three wells (Fig. 7a)","column suffix _20, reading M17",2.585
same,"Th-T assay signal, mean of three wells (Fig. 7a)","column suffix _20, reading M18",2.567
same,"Fig. 7a Th-T reading, mean of three wells","column suffix _20, reading M85",2.083
same,"Fig. 7a Th-T reading, mean of three wells","column suffix _20, reading M86",2.058
same,"Fig. 7a Th-T reading, mean of three wells","column suffix _20, reading M87",2.078
same,"Fig. 7a Th-T reading, mean of three wells","column suffix _20, reading M88",2.109
same,"Fig. 7a Th-T reading, mean of three wells","column suffix _20, reading M89",2.106
same,"Fig. 7a Th-T reading, mean of three wells","column suffix _20, reading M90",2.088
same,"Fig. 7a Th-T reading, mean of three wells","column suffix _20, reading M91",2.094
same,"Fig. 7a Th-T reading, mean of three wells","column suffix _20, reading M92",2.104
same,"Fig. 7a Th-T reading, mean of three wells","column suffix _20, reading M93",2.083
same,"Fig. 7a Th-T reading, mean of three wells","column suffix _20, reading M94",2.114
same,"Fig. 7a Th-T reading, mean of three wells","column suffix _20, reading M95",2.102
same,"Fig. 7a Th-T reading, mean of three wells","column suffix _20, reading M96",2.08
same,"Fig. 7a Th-T reading, mean of three wells","column suffix _20, reading M97",2.11
same,"Fig. 7a Th-T reading, mean of three wells","column suffix _20, reading M98",2.085
same,"Fig. 7a Th-T reading, mean of three wells","column suffix _20, reading M99",2.135
same,"Fig. 7a Th-T reading, mean of three wells","column suffix _20, reading M100",2.117
